≈ marks a conversion by molar mass, not a printed value.
How the values were obtained:
Format in all cases: functional, cell-based
HeLa [1] = assay: Cytotoxicity against human HeLa cells
MCF7 [2] = assay: Cytotoxicity against human MCF7 cells
Hep 3B2 = assay: Cytotoxicity against human Hep3B cells
HeLa [3] = assay: Cytotoxicity against human HeLa cells measured after 48 hrs by MTT assay
HGC-27 = assay: Cytotoxicity against human HGC-27 cells measured after 48 hrs by MTT assay; settings: HGC-27, 48 h
MCF7 [4] = assay: Cytotoxicity against human MCF7 cells measured after 48 hrs by MTT assay; settings: MCF7, 48 h
HT-29 [5] = assay: Cytotoxicity against human HT-29 cells measured after 48 hrs by MTT assay; settings: HT-29, 48 h
PC-3 [6] = assay: Cytotoxicity against human PC-3 cells measured after 48 hrs by MTT assay; settings: PC-3, 48 h
U-251 = assay: Antitumor activity against human U-251 cells assessed as inhibition of cell growth measured after 48 hrs by spectrophotometric analysis; settings: U-251, 48 h
786-0 [7] = assay: Antitumor activity against human 786-0 cells assessed as inhibition of cell growth measured after 48 hrs by spectrophotometric analysis; settings: 786-0, 48 h
MCF7 [8] = assay: Antitumor activity against human MCF7 cells assessed as inhibition of cell growth measured after 48 hrs by spectrophotometric analysis; settings: MCF7, 48 h
HT-29 [9] = assay: Antitumor activity against human HT-29 cells assessed as inhibition of cell growth measured after 48 hrs by spectrophotometric analysis; settings: HT-29, 48 h
NCI/ADR-RES = assay: Antitumor activity against human NCI-ADR-RES cells assessed as inhibition of cell growth measured after 48 hrs by spectrophotometric analysis
HaCaT = assay: Antitumor activity against human HaCaT cells assessed as inhibition of cell growth measured after 48 hrs by spectrophotometric analysis
PC-3 [10] = assay: Antitumor activity against human PC-3 cells assessed as inhibition of cell growth measured after 48 hrs by spectrophotometric analysis; settings: PC-3, 48 h
OVCAR-3 [11] = assay: Antitumor activity against human OVCAR-3 cells assessed as inhibition of cell growth measured after 48 hrs by spectrophotometric analysis; settings: OVCAR-3, 48 h
NCI-H460 = assay: Antitumor activity against human NCI-H460 cells assessed as inhibition of cell growth measured after 48 hrs by spectrophotometric analysis; settings: NCI-H460, 48 h
LoVo [12] = assay: Cytotoxicity against human LoVo cells
KB [13] = assay: Cytotoxicity against human KB cells; settings: Homo sapiens, KB; read-out: IC50
HepG2 [14] = assay: Cytotoxicity against human HepG2 cells incubated for 72 hrs by MTT assay; settings: HepG2, 72 h
CNE-2 = assay: Cytotoxicity against human CNE-2 cells incubated for 72 hrs by MTT assay; settings: CNE-2, 72 h
HONE1 cell line = assay: Cytotoxicity against human HONE1 cell line incubated for 72 hrs by MTT assay; settings: HONE1, 72 h
[15] = Cytotoxicity against human QGY-7701 cells incubated for 72 hrs by MTT assay; settings: QGY7701, 72 h
SUNE1 = assay: Cytotoxicity against human SUNE1 cells incubated for 72 hrs by MTT assay; settings: SUNE1, 72 h
CNE = assay: Cytotoxicity against human CNE-1 cells incubated for 72 hrs by MTT assay
PC-3 [16] = assay: Antiproliferative activity against human PC-3 cells
HeLa [17] = assay: Cytotoxicity against human HeLa cells measured after 24 hrs by MTT assay
HepG2 [18] = assay: Cytotoxicity against human HepG2 cells measured after 24 hrs by MTT assay; settings: HepG2, 24 h
[19] = Cytotoxicity against human Pancreatic cancer cell measured after 72 hrs by MTT assay
Breast carcinoma cell = assay: Cytotoxicity against human Breast cancer cell line measured after 72 hrs by MTT assay
HL-60 = assay: Cytotoxicity against human HL-60 cells; settings: Homo sapiens, HL-60; read-out: IC50
PC-3 [20] = assay: Cytotoxicity against human PC-3 cells
SGC-7901 = assay: Cytotoxicity against human SGC-7901 cells
HL-60(TB) = assay: Antiproliferative activity against human HL-60(TB) cells
PANC-1 = assay: Antiproliferative activity against human PANC-1 cells incubated for 72 hrs by MTT assay; settings: PANC-1, 72 h
MDA-MB-231 = assay: Antiproliferative activity against human MDA-MB-231 cells incubated for 72 hrs by MTT assay; settings: MDA-MB-231, 72 h
A549 [21] = assay: Antiproliferative activity against human A549 cells incubated for 72 hrs by MTT assay; settings: A549, 72 h
Hs 683 = assay: Antiproliferative activity against human Hs 683 cells incubated for 72 hrs by MTT assay; settings: Hs 683, 72 h
T98G = assay: Antiproliferative activity against human T98G cells incubated for 72 hrs by MTT assay
Malme-3M = assay: Cytotoxicity against human Malme-3M cells
A549 [22] = assay: Cytotoxicity against human A549 cells
OVCAR-3 [23] = assay: Cytotoxicity against human OVCAR-3 cells
A549 [24] = assay: Cytotoxicity against human A549 cells assessed as cell viability incubated for 1 hr by spectrophotometry; settings: A549, 1 h
A-375 = assay: Cytotoxicity against human A-375 cells assessed as cell viability incubated for 1 hr by spectrophotometry; settings: A-375, 1 h
HepG2 [25] = assay: Cytotoxicity against human HepG2 cells assessed as cell viability incubated for 1 hr by spectrophotometry; settings: HepG2, 1 h
LoVo [26] = assay: Cytotoxicity against human LoVo cells assessed as cell viability incubated for 1 hr by spectrophotometry
769-P = assay: Cytotoxicity against human 769-P cells assessed as cell viability incubated for 1 hr by spectrophotometry
HeLa [27] = assay: Cytotoxicity against human HeLa cells assessed as cell viability incubated for 1 hr by spectrophotometry
BGC-823 = assay: Cytotoxicity against human BGC-823 cells assessed as cell viability incubated for 1 hr by spectrophotometry; settings: BGC-823, 1 h
786-0 [28] = assay: Cytotoxicity against human 786-0 cells assessed as cell viability incubated for 1 hr by spectrophotometry; settings: 786-0, 1 h
KB [29] = assay: Cytotoxicity against human KB cells assessed as cell viability incubated for 1 hr by spectrophotometry
HT-29 [30] = assay: Cytotoxicity against human HT-29 cells assessed as cell viability incubated for 1 hr by spectrophotometry; settings: HT-29, 1 h
Bel-7402 = assay: Cytotoxicity against human Bel-7402 cells assessed as cell viability incubated for 1 hr by spectrophotometry; settings: Bel-7402, 1 h

## CCCCCCCCCCCCCCCCCCCCCCCC(=O)N1CCc2c([nH]c3ccc(O)cc23)[C@H]1Cc1ccc(O)cc1
HeLa [1]
  IC50: < 2 µM
MCF7 [2]
  IC50: < 2 µM
Hep 3B2
  IC50: < 2 µM

## COc1cc(-c2nc(Cn3cc(CN4C(=O)c5ccccc5C4=O)nn3)cc3c2[nH]c2ccccc23)cc(OC)c1OC
HeLa [3]
  IC50: 3.67 µM
HGC-27
  IC50: 3.67 µM
MCF7 [4]
  IC50: 3.67 µM
HT-29 [5]
  IC50: 3.67 µM
PC-3 [6]
  IC50: 3.67 µM

## c1ccc(-c2nc(-c3nnc4snnn34)cc3c2[nH]c2ccccc23)cc1
U-251
  IC50: 0.08 µM
786-0 [7]
  IC50: 0.08 µM
MCF7 [8]
  IC50: 0.08 µM
HT-29 [9]
  IC50: 0.08 µM
NCI/ADR-RES
  IC50: 0.08 µM
HaCaT
  IC50: 0.08 µM
PC-3 [10]
  IC50: 0.08 µM
OVCAR-3 [11]
  IC50: 0.08 µM
NCI-H460
  IC50: 0.08 µM

## Oc1cccc2c1[nH]c1c(C3=C[C@@]4(O)CC/C=C\CCCCN5CC[C@@H]3[C@]3(C[C@@H]6/C=C\CCCCN6[C@H]34)C5)nccc12
LoVo [12]
  IC50: 0.26 µg/mL (≈ 0.46 µM)
KB [13]
  IC50: 0.3 µg/mL (≈ 0.531 µM)

## O=C(c1nccc2c1[nH]c1ccccc12)[C@@H](O)CCCO
HepG2 [14]
  IC50: 50.9 µM
CNE-2
  IC50: 20.6 µM
HONE1 cell line
  IC50: 20.1 µM
[15]
  IC50: 29 µM
SUNE1
  IC50: 45.3 µM
CNE
  IC50: 16.3 µM

## COc1c[n+](Cc2ccccc2)c2ccc(=O)n3c4ccccc4c1c23
PC-3 [16]
  IC50: 8 µM

## COC(=O)c1cc2c([nH]c3ccccc32)c(-c2cccc(OCc3cn(-c4ccc(Cl)c(Cl)c4)nn3)c2)n1
HeLa [17]
  IC50: 46 µM
HepG2 [18]
  IC50: 32 µM

## COc1ccc2[nH]c3c(-c4cccc5ccccc45)nccc3c2c1
[19]
  IC50: 0.38 µM
Breast carcinoma cell
  IC50: 0.39 µM

## COC(=O)NCCc1c(C(=O)C[C@]2(C)c3[nH]c4cc(OC)ccc4c3CCN2C(=O)OC)[nH]c2cc(OC)ccc12
HL-60
  IC50: 3.81 µM
PC-3 [20]
  IC50: 11.5 µM
SGC-7901
  IC50: 15.2 µM

## COc1ccc2[nH]cc(-c3nccc4c3[nH]c3ccc(OC)cc34)c2c1
HL-60(TB)
  IC50: 4.2 µM

## CCCn1c2cc(OCCC(C)C)ccc2c2cc[n+](Cc3ccccn3)c(C)c21
PANC-1
  IC50: 0.2 µM
MDA-MB-231
  IC50: 0.2 µM
A549 [21]
  IC50: 0.2 µM
Hs 683
  IC50: 0.2 µM
T98G
  IC50: 0.2 µM

## O=C1c2ccccc2-[n+]2ccc3c([nH]c4ccccc43)c21 [FASCAPLYSIN]
Malme-3M
  IC50: 0.03 µg/mL
A549 [22]
  IC50: 0.38 µg/mL
MCF7 [2]
  IC50: 0.14 µg/mL
OVCAR-3 [23]
  IC50: 0.16 µg/mL

## COc1ccc(/C=C/c2c3c(cc[n+]2Cc2ccccc2)c2ccccc2n3CCCc2ccccc2)cc1
A549 [24]
  IC50: < 5 µM
A-375
  IC50: < 5 µM
HepG2 [25]
  IC50: < 5 µM
LoVo [26]
  IC50: < 5 µM
769-P
  IC50: < 5 µM
HeLa [27]
  IC50: < 5 µM
BGC-823
  IC50: < 5 µM
786-0 [28]
  IC50: < 5 µM
KB [29]
  IC50: < 5 µM
HT-29 [30]
  IC50: < 5 µM
Bel-7402
  IC50: < 5 µM

— ChEMBL document CHEMBL5241090, “A comprehensive overview of β-carbolines and its derivatives as anticancer agents” (Eur J Med Chem, 2021)
